In ChEMBL document CHEMBL1201862, “PubChem BioAssay data set” (2004):
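Five compound concentrations were applied to cells in 96-well plates for 48 hours; endpoints were derived by simple linear interpolation of the resulting dose-response curve. GI50 = concentration required for 50% inhibition of growth.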 Calls of active or inactive are those of the source. Cut-off read from the data, not from the text of the source: active = GI50 up to about 1.1 µM and inactive = higher.

Columns and labels:
Test in all cases: inhibition of tumour cell growth, NCI panel, 48 h
[1] = system: K562
[2] = system: RPMI-8226
[3] = system: LOX IMVI
[4] = system: HL-60
[5] = system: COLO 205
[6] = system: HT-29
[7] = system: SK-MEL-2
[8] = system: HCT-116
[9] = system: SR
[10] = system: SK-MEL-28
[11] = system: HCC 2998
[12] = system: A549
[13] = system: UACC-257
[14] = system: NCI/ADR-RES
[15] = system: NCI-H226
[16] = system: Malme-3M
[17] = system: TK-10
[18] = system: SF-268
[19] = system: NCI-H522
[20] = system: MDA-N

Compound | GI50 [1] | GI50 [2] | GI50 [3] | GI50 [4] | GI50 [5] | GI50 [6] | GI50 [7] | GI50 [8] | GI50 [9] | GI50 [10] | GI50 [11] | GI50 [12] | GI50 [13] | GI50 [14] | GI50 [15] | GI50 [16] | GI50 [17] | GI50 [18] | GI50 [19] | GI50 [20]
COc1cc2c(cc1OC)OC(c1c(OC)ccc(OC)c1O)CC2 (centres undefined) | > 100 µM (inactive) | 37.2 µM (inactive) | > 100 µM (inactive) | 20.4 µM (inactive) | 91.4 µM (inactive) | > 100 µM (inactive) | > 100 µM (inactive) | > 100 µM (inactive) | > 100 µM (inactive) | > 100 µM (inactive) | > 100 µM (inactive) | > 100 µM (inactive) | > 100 µM (inactive) | > 100 µM (inactive) | > 100 µM (inactive) | 74 µM (inactive) | 95.3 µM (inactive) | > 100 µM (inactive) |  | 
COc1ccc2c(ccc3c(COC(=O)NC(C)C)c(COC(=O)NC(C)C)n(C)c32)c1 | 6.08 µM (inactive) | 10 µM (inactive) | 4.62 µM (inactive) |  | 10.8 µM (inactive) | 10.8 µM (inactive) | 17.1 µM (inactive) | 6.04 µM (inactive) | 0.655 µM (active) |  |  | 11.3 µM (inactive) | 12.7 µM (inactive) | 5.01 µM (inactive) | 3.08 µM (inactive) | 2.54 µM (inactive) | 11.2 µM (inactive) | 5.19 µM (inactive) | 2.36 µM (inactive) | 12.3 µM (inactive)
CC(=O)Nc1ccc2c(c1)/C(=C\c1ccc([N+](C)(C)C)cc1)c1ccccc1-2 | 29.6 µM (inactive) | 24.9 µM (inactive) | 47.9 µM (inactive) | 24.8 µM (inactive) | 18 µM (inactive) | 35.5 µM (inactive) |  | 85.3 µM (inactive) |  | 35.5 µM (inactive) | 55.6 µM (inactive) | 33.7 µM (inactive) | 30.6 µM (inactive) | > 100 µM (inactive) | 23.1 µM (inactive) | 39.3 µM (inactive) | > 100 µM (inactive) | 64.9 µM (inactive) | 32.9 µM (inactive) | 32.8 µM (inactive)
COc1ccccc1C1=C2C(=O)N(C)C(c3ccccc3OC)=C2C(=O)N1C | > 100 µM (inactive) |  | > 100 µM (inactive) | > 100 µM (inactive) | > 100 µM (inactive) | > 100 µM (inactive) |  | 37.4 µM (inactive) |  | 76.6 µM (inactive) | > 100 µM (inactive) | 44.1 µM (inactive) | 79.8 µM (inactive) | 45.7 µM (inactive) | 84.3 µM (inactive) | 45.4 µM (inactive) | 70.6 µM (inactive) | 36.1 µM (inactive) | 43.2 µM (inactive) | > 100 µM (inactive)
CCNc1ccc2c(c1)Cc1ccccc1-2 | 27.6 µM (inactive) | 47.3 µM (inactive) | 32.3 µM (inactive) | 37.3 µM (inactive) | 64.9 µM (inactive) | 50.5 µM (inactive) | 56.1 µM (inactive) | > 100 µM (inactive) | 14.5 µM (inactive) | > 100 µM (inactive) | 9.71 µM (inactive) | 73.5 µM (inactive) | 49.7 µM (inactive) | > 100 µM (inactive) | 54.7 µM (inactive) | 67.9 µM (inactive) | 33.1 µM (inactive) | 46.2 µM (inactive) | 32.7 µM (inactive) | 
CCCCCCCc1ccc(-c2nnc(/N=N/c3ccc(OCCCCC)cc3)s2)s1 |  | > 100 µM (inactive) |  | > 100 µM (inactive) | > 100 µM (inactive) | > 100 µM (inactive) | > 100 µM (inactive) | > 100 µM (inactive) |  | > 100 µM (inactive) | > 100 µM (inactive) | > 100 µM (inactive) | > 100 µM (inactive) | > 100 µM (inactive) | > 100 µM (inactive) | > 100 µM (inactive) | > 100 µM (inactive) | > 100 µM (inactive) | > 100 µM (inactive) | > 100 µM (inactive)
Cc1c(-c2ccc(O)cc2)n(CCCCCCNCCOC(=O)NCCCc2ccc(N(CCCl)CCCl)cc2)c2ccc(O)cc12 | 2.67 µM (inactive) | 1.31 µM (inactive) | 1.5 µM (inactive) | 1.44 µM (inactive) | 2.64 µM (inactive) | 1.59 µM (inactive) | 10.6 µM (inactive) | 1.52 µM (inactive) | 0.809 µM (active) | 4.21 µM (inactive) | 1.86 µM (inactive) | 1.88 µM (inactive) | 1.89 µM (inactive) |  |  | 1.6 µM (inactive) | 2.24 µM (inactive) | 1.52 µM (inactive) | 1.69 µM (inactive) | 1.73 µM (inactive)
CCOC(=O)CCC(C(=O)OCC)n1nnc2ccc(Nc3c(C)[n+]([O-])c4cc(Cl)ccc4[n+]3[O-])cc21 (centres undefined) | 22.6 µM (inactive) | 20.9 µM (inactive) | 17.7 µM (inactive) | 29.9 µM (inactive) | 19.3 µM (inactive) | 27.2 µM (inactive) | 21.7 µM (inactive) | 25.1 µM (inactive) | 30.3 µM (inactive) |  | 16.8 µM (inactive) | 61.5 µM (inactive) | 16.3 µM (inactive) | 31.8 µM (inactive) | 26.5 µM (inactive) | 17.3 µM (inactive) | 71.8 µM (inactive) | 18.8 µM (inactive) | 19.5 µM (inactive) | 
Cc1cc(C)c2c(-c3ccccc3)cc(=O)[nH]c2c1 | > 100 µM (inactive) | > 100 µM (inactive) | > 100 µM (inactive) | > 100 µM (inactive) | > 100 µM (inactive) | > 100 µM (inactive) | > 100 µM (inactive) | > 100 µM (inactive) |  | > 100 µM (inactive) | > 100 µM (inactive) | > 100 µM (inactive) | > 100 µM (inactive) | > 100 µM (inactive) | > 100 µM (inactive) | > 100 µM (inactive) | > 100 µM (inactive) | > 100 µM (inactive) | > 100 µM (inactive) | > 100 µM (inactive)
COc1cc([C@@H]2c3cc4c(cc3[C@@H](NCCNCCO)[C@H]3COC(=O)[C@H]23)OCO4)cc(OC)c1O | 1.04 µM (active) |  |  |  | 2.42 µM (inactive) | 2 µM (inactive) | 2.78 µM (inactive) | 2 µM (inactive) |  | 2.67 µM (inactive) |  | 0.406 µM (active) | 5.02 µM (inactive) | > 99.5 µM (inactive) | 1.37 µM (inactive) |  | 7.38 µM (inactive) |  |  | 3.88 µM (inactive)
O=C(O)c1cc2ccccc2c(/N=N/c2ccccc2)c1O | 36.8 µM (inactive) | 21.6 µM (inactive) |  | 10 µM (inactive) | 17.9 µM (inactive) | 11.8 µM (inactive) | > 10 µM (inactive) | 35.4 µM (inactive) |  | 29.8 µM (inactive) |  | 18.1 µM (inactive) | 15.6 µM (inactive) | 27.2 µM (inactive) |  | 13.1 µM (inactive) | 29 µM (inactive) | 30 µM (inactive) | 26.6 µM (inactive) | 19.1 µM (inactive)
Cc1nc(C)c(C(=O)NNC(N)=S)cc1C(=O)NNC(N)=S | > 100 µM (inactive) | > 100 µM (inactive) | > 100 µM (inactive) | > 100 µM (inactive) | > 100 µM (inactive) | > 100 µM (inactive) | > 100 µM (inactive) | > 100 µM (inactive) |  | > 100 µM (inactive) | > 100 µM (inactive) | > 100 µM (inactive) | > 100 µM (inactive) | > 100 µM (inactive) | > 100 µM (inactive) |  | > 100 µM (inactive) | > 100 µM (inactive) | > 100 µM (inactive) | > 100 µM (inactive)
CCOP(=O)(Nc1ccccc1P(=O)(OCC)OCC)OCC | > 100 µM (inactive) | > 100 µM (inactive) |  |  | > 100 µM (inactive) | > 100 µM (inactive) | > 100 µM (inactive) | > 100 µM (inactive) |  | > 100 µM (inactive) | > 100 µM (inactive) | > 100 µM (inactive) | > 100 µM (inactive) | > 100 µM (inactive) |  | > 100 µM (inactive) | > 100 µM (inactive) | > 100 µM (inactive) | > 100 µM (inactive) | > 100 µM (inactive)
Cc1nc2c(cc1OCc1ccccc1)C(=O)C1=C(C2=O)C2OC(=O)CC2OC1(C)C (centres undefined) |  | 0.368 µM (active) | 0.215 µM (active) | 0.0697 µM (active) | 0.326 µM (active) | 0.375 µM (active) | 1.46 µM (inactive) | 0.28 µM (active) |  | 0.33 µM (active) | 0.579 µM (active) | 6.44 µM (inactive) | 0.671 µM (active) | 3.14 µM (inactive) | 1.09 µM (active) | 0.474 µM (active) | 1.43 µM (inactive) | 0.475 µM (active) | 0.149 µM (active) | 0.404 µM (active)
CCn1c2c(n(CC)c1=S)-c1c(n(CC)c(=S)n1CC)SSSS2 | 1.03 µM (active) | 2.82 µM (inactive) | 9.79 µM (inactive) | 2.9 µM (inactive) | 5.53 µM (inactive) | 11.7 µM (inactive) | 16.6 µM (inactive) | 3.4 µM (inactive) | 1.69 µM (inactive) | 7.31 µM (inactive) | 25.4 µM (inactive) | 36.7 µM (inactive) | 8.57 µM (inactive) |  | 31.8 µM (inactive) | 2.83 µM (inactive) | 15.2 µM (inactive) | 21.1 µM (inactive) | 1.88 µM (inactive) | > 10 µM (inactive)
CC(C)N(C(C)C)S(=O)(=O)C[C@]12CC[C@H](CC13OCC(CS(=O)(=O)c1ccccc1)O3)C2(C)C (some centres undefined) | 24.5 µM (inactive) | 26.5 µM (inactive) | 64.6 µM (inactive) | 13 µM (inactive) | 17.6 µM (inactive) | 33.4 µM (inactive) | 52.5 µM (inactive) | 35.9 µM (inactive) |  | > 93.5 µM (inactive) | 54.5 µM (inactive) | 36.6 µM (inactive) | 28.2 µM (inactive) | 41.9 µM (inactive) | 34.1 µM (inactive) | 89.1 µM (inactive) | 44.9 µM (inactive) | 59.2 µM (inactive) | 21.8 µM (inactive) | 51.4 µM (inactive)
